{"source": "patent US20220096515A1", "about": "“Methods and Formulations for Preventing Neurological or Psychiatric Disorders” (Huntington Medical Research Institutes, priority 2020, published 2022)", "key": {"[1]": {"test_system": "Gabrb3^ECKO cerebral cortex", "assay": "Adult (P90) cortex vessel densities and GABA cell counts after prenatal treatment", "format": "in vivo, mouse", "description": "Histology, immunohistochemistry, and microscopic analysis: Paraffin immunohistochemistry (IHC) was performed on embryonic brains only while frozen section IHC was used on both embryonic and adult brains. Briefly, for paraffin IHC-E18 brains were fixed in zinc fixative (BD Biosciences PharMingen) for 24 h and processed for paraffin histology. Histological stainings with hematoxylin (Vector Laboratories) and eosin (Sigma) were performed on 8 μm coronal sections. Lectin histochemistry (with biotinylated isolectin B4, 1:50, Sigma) as well as IHC was performed on 20 μm sections. […]\nMorphometry: A stereological point grid was superimposed on digital images of biotinylated isolectin-B4+ vessels using ImageJ software. The ratio between points falling on blood vessels and on brain tissue was calculated for each section, and average values were obtained.\nCell counting: Profiles of GABA+ immunoreactive cells were counted in the prefrontal cortex (at bregma levels 1.5, 0.5 and −1.5) using stereotaxic coordinates from the atlas: The Mouse Brain in Stereotaxic Coordinates, by Paxinos and Franklin. For each area, cells in the strip of cortex from the pial surface to the white-gray matter interface were counted using ImageJ software and plotted. […]"}, "[2]": {"test_system": "cerebral cortex of Gabrb3^ECKO mice", "assay": "In vivo multiphoton laser-scanning microscopy of cortical microvasculature", "parameters": "species or system mouse", "description": "In vivo imaging of brain microvasculature by multiphoton laser-scanning microscopy: In vivo imaging of the brain vasculature in cranial window bearing mice was performed as described previously. Briefly, a cranial window was implanted by removing circular area of skull and dura. Then, the window was sealed with a 7 mm cover glass glued to the bone. For the measurement of red blood cell (RBC) velocity and blood vessel diameter, we used multiphoton laser-scanning microscopy (MPLSM). To avoid potential tissue/vessel alteration caused by the window implantation procedure, we performed imaging at least 10 days after cranial window implantation. For imaging, mice were anesthetized with ketamine/xylazine, then tetramethylrhodamine (TAMRA)-dextran (MW 500,000) was administrated through retro-orbital injection. Using TAMRA-dextran contrast enhanced angiography, region of interest is first identified. Since the intravenously injected dye labels only the blood plasma, RBCs appear as dark patches moving within the vessel lumen. Centerline RBC velocity was measured by repetitively scanning a line along the central axis of a single blood vessel (x-t) and enabling the tracking of the motion of these dark patches. The space-time image produced by the line-scan contained diagonal dark streaks formed by moving RBCs, with a slope that was inversely proportional to the centerline RBC velocity. This space-time image was then computationally processed using Matlab and Python to extract the gradient of each streak, corresponding to the RBC velocity. Briefly, diagonal filters of varying gradients were tested for each streak until the gradient that fit best was found. […] The blood flow rate was determined through the following formula: […]\nTherefore, vessel diameters, red blood cell (RBC) velocity, and blood flow were evaluated in the cerebral cortex of saline-treated Gabrb3^fl/fl mice, saline-treated Gabrb3^ECKO mice, and NAD^+-treated Gabrb3^ECKO mice (FIGS. 14A-14F) using multiphoton laser-scanning microscopy (MPLSM) and a sophisticated cranial window model. […]"}, "GAD65-GFP knock in mice": {"test_system": "GAD65-GFP knock in mice", "assay": "E12-E17 NAD+ injection paradigm in GAD65-GFP knock in mice", "format": "in vivo, mouse", "conditions": "E18, vs NAD^+-untreated group", "source_text": "Animals: Timed pregnant CD1 mice were purchased from Charles River laboratories, MA. Colonies of GAD65-GFP mice were maintained in our institutional animal facility. Tie2-cre mice and Gabrb3 floxed (Gabrb3^fl/fl) mice were obtained from Jackson Labs. The Tie2-cre transgene is known for uniform expression of cre-recombinase in endothelial cells during embryogenesis and adulthood. To selectively delete Gabrb3 in endothelial cells, Tie2-cre transgenic mice (males) were crossed to Gabrb3^fl/fl mice (females) to generate Tie2-cre; Gabrb3^fl/+ mice (males). These were further crossed with Gabrb3^fl/fl mice (females) to obtain the Gabrb3 conditional knock-outs (Tie2-cre; Gabrb3^fl/fl mice). The day of plug discovery was designated embryonic day 0 (E0). Animal experiments were in full compliance with the NIH Guide for Care and Use of Laboratory Animals and were approved by the HMRI and McLean Institutional Animal Care Committees.\nTo test if the prenatal NAD^+ treatment was able to influence GABAergic neuronal migration, an in vitro neuronal migration assay was performed (FIG. 6M), after the in vivo NAD^+ treatment paradigm (E12-E17). […] This aspect was further explored by using the E12-E17 NAD^+ injection paradigm in GAD65-GFP knock in mice (FIGS. 6P-6T). Images of GFP^+ cells that had entered the dorsal telencephalon at E18 were collected and analyzed. […]"}, "[3]": {"conditions": "adult, after prenatal treatment"}}, "data": [{"smiles": "NC(=O)c1ccc[n+]([C@@H]2O[C@H](COP(=O)([O-])OP(=O)(O)OC[C@H]3O[C@@H](n4cnc5c(N)ncnc54)[C@H](O)[C@@H]3O)[C@@H](O)[C@H]2O)c1", "note": "[NAD^+]", "values": [{"measurement": "GABAergic interneurons in adult cerebral cortex", "setting": "[1]", "result": "concurrent increase"}, {"measurement": "blood vessel densities in adult cerebral cortex", "setting": "[1]", "result": "concurrent increase"}, {"measurement": "RBC velocity in capillaries", "setting": "[2]; [3]", "result": "reversed"}, {"measurement": "diameter of capillaries and collecting venules", "setting": "[2]; [3]", "result": "morphological alteration was rescued"}, {"measurement": "blood flow in capillaries and collecting venules", "setting": "[2]; vs saline-treated Gabrb3^ECKO mice", "result": "significantly reduced"}, {"measurement": "percentage of GFP^+ cells in dorsal telencephalon", "setting": "GAD65-GFP knock in mice", "result": "significant increase in the percentage of GFP^+ cells"}]}]}
